According to patent publication US4822879A, “Enzyme-inhibitory griseolic acid derivatives, and their use” (Sankyo Company Limited, priority 1984, dated 1989):

Columns and labels:
cAMP PDE = test: Enzyme inhibitory activity, cAMP PDE (crude enzymatic solution from rat brains); format: biochemical; conditions: for IC50: 14C-labeled cAMP substrate 0.14 μmoles, pH 8.0, 30° C., 20 minutes, read-out: I50 (50% inhibition value); for potency relative to papaverine: ratio to papaverine
Protocol: The enzyme inhibitory activity of dihydrodesoxygriseolic acid was measured, as was that of griseolic acid itself and that of the known cAMP PDE inhibitor, papaverine, for purposes of comparison.
The test was carried out following essentially the method of A. L. Pichard and Y. U. Chung [Journal of Biological Chemistry, 251, 5726-5737 (1976)]. A crude enzymatic solution derived from rat brains was used as the source of cAMP PDE.
^14 C-labeled cAMP was used as the substrate. It was employed in a 0.2M Tris-hydrochloric acid buffer solution (pH 8.0) in an amount sufficient to provide a final concentration of 0.14 μmoles. "Tris" is tris(hydroxymethyl)aminomethane. The substrate solution was mixed with an appropriate amount of the compound under test dissolved in 2-5 μl of dimethyl sulfoxide and with 20 μl of a snake venom solution and 40 μl of the crude enzyme solution. Sufficient Tris-hydrochloric acid buffer was added to make a total volume of 100 μl. The mixture was allowed to react at 30° C. for 20 minutes. At the end of this time, the reaction mixture was treated with an Amberlite (trademark) IRP-58 resin and the level of residual adenosine radioactivity in the product was determined.
The results are shown in the following Table 1, in which the I50 values are given in μmoles.

[1] = system: male mice of the ddY strain; test: Acute toxicity, intravenous, mice; conditions: in words, from Table 2
Source text: The compounds under test were griseolic acid and dihydrodesoxygriseolic acid. The test animals were male mice of the ddY strain, 5 weeks of age and weighing 24.25 g. The mice were employed in groups of 3 or 5 animals for each test.
Administration was intravenous.
The results are reported in Table 2, in the form "a/b", where "a" is the number of deceased animals in the test group at the end of the test and "b" is the total number of animals in the relevant test group.

[2] = Water solubility (stated in words); format: physicochemical

SMILES	IC50 (cAMP PDE) [nM]	potency relative to papaverine (cAMP PDE; from Table 1)	toxicity compared with griseolic acid [1]	inhibitory activity compared with griseolic acid (cAMP PDE; in words, from Table 1)	water solubility [2]
COc1ccc(Cc2nccc3cc(OC)c(OC)cc23)cc1OC [papaverine, reference compound]	3500	–	–	–	–
Nc1ncnc2c1ncn2[C@@H]1OC2=C[C@@](C(=O)O)(C(O)C(=O)O)O[C@H]2[C@H]1O (some centres unmarked) [griseolic acid]	160	about 20 times	–	–	–
Nc1ncnc2c1ncn2C1OC2CC(CC(=O)O)(C(=O)O)OC2C1O (centres unmarked) [dihydrodesoxygriseolic acid]	120	about 20 times	substantially less toxic than griseolic acid	comparable with that of griseolic acid	water-soluble
